The source made the active and inactive calls. The rule behind the calls is not given here.
Experiments:
Mus musculus = assay: In vivo PROTAC activity at CRBN/AXL in human MDA-MB-231 cells xenografted Balb/c mouse assessed as degradation of AXL in tumor at 10 to 20 mg/kg, ip administered for 22 days and measured 24 hrs post last dose by Western blot analysis; type: functional, organism-based; conditions: dose 10-20 mg/kg, time 23.0 day
[1] = Toxicity in Balb/c nude mouse xenografted with human MDA-MB-231 cells assessed as mortality at 10 to 20 mg/kg, ip administered for 22 days and measured 24 hrs post last dose; type: organism-based; conditions: in vivo, 552 h, dose 10-20 mg/kg, time 23 day
[2] = biological target: T1, Protein cereblon/Tyrosine-protein kinase receptor UFO (Homo sapiens, UniProt P30530+Q96SW2); assay: PROTAC activity at CRBN/AXL in human MDA-MB-231 cells assessed as induction of AXL degradation at 40 nM preincubated with MG-132 for 2 hrs followed by compound treatment and measured after 24 hrs by Western blot analysis; type: cell-based
[3] = biological target: T1, Protein cereblon/Tyrosine-protein kinase receptor UFO; assay: PROTAC activity at CRBN/AXL in human MDA-MB-231 cells assessed as induction of AXL degradation at 10 nM preincubated with more than 5 uM of N-(4-((6,7-dimethoxyquinazolin-4-yl)oxy)-3-fluorophenyl)-6-ethyl-1,2-dimethyl-4-oxo-1,4-dihydroquinoline-3-carboxamide for 6 hrs followed by compound treatment and measured after 24 hrs by Western blot analysis; type: cell-based
[4] = biological target: T1, Protein cereblon/Tyrosine-protein kinase receptor UFO; assay: PROTAC activity at CRBN/AXL in human MDA-MB-231 cells assessed as induction of AXL degradation at 40 nM incubated for 18 to 24 hrs by Western blot analysis; type: cell-based; conditions: time 18-24 hrs
MDA-MB-231 [5] = assay: Induction of cell cycle arrest in human MDA-MB-231 cells assessed as accumulation of cell at G2/M phase at 300 nM incubated for 24 hrs by PI staining based flow cytometric analysis (reference value: 24.34 to 24.44%); type: functional
MDA-MB-231 [6] = assay: Induction of apoptosis in human MDA-MB-231 cells assessed as upregulation of cleaved PARP expression by Western blot analysis; type: functional, cell-based; conditions: dose 11.1-300 nM
MDA-MB-231 [7] = assay: Induction of cell cycle arrest in human MDA-MB-231 cells assessed as G0/G1 phase cells at 300 nM incubated for 24 hrs by PI staining based flow cytometric analysis (reference value: 63.32 to 64.94%); type: functional
[8] = Toxicity in Balb/c nude mouse xenografted with human MDA-MB-231 cells assessed as effect on body weight at 10 to 20 mg/kg, ip administered for 22 days and measured 24 hrs post last dose; type: organism-based; conditions: in vivo, 552 h, dose 10-20 mg/kg, time 23 day
[9] = biological target: T1, Protein cereblon/Tyrosine-protein kinase receptor UFO; assay: PROTAC activity at CRBN/AXL in human MDA-MB-231 cells assessed as induction of AXL degradation by measuring ubiquitination of AXL at 40 nM preincubated with MG-132 for 2 hrs followed by compound treatment and measured after 24 hrs by coimmunoprecipitation analysis; type: cell-based
[10] = biological target: T1, Protein cereblon/Tyrosine-protein kinase receptor UFO; assay: PROTAC activity at CRBN/AXL in human MDA-MB-436 cells expressing AXL assessed as induction of AXL degradation at 1.6 to 1000 nM incubated for 24 hrs by Western blot analysis; type: cell-based; conditions: dose 1.6-1000 nM
MDA-MB-231 [11] = assay: Induction of cell cycle arrest in human MDA-MB-231 cells assessed as accumulation of cell at G2/M phase at 33.3 nM incubated for 24 hrs by PI staining based flow cytometric analysis (reference value: 24.34 to 24.44%); type: functional
MDA-MB-231 [12] = assay: Antiproliferative activity against human MDA-MB-231 cells expressing AXL assessed as inhibition of cell growth incubated for 72 hrs by CCK8 assay; type: functional, cell-based; conditions: MDA-MB-231, 72 h
MDA-MB-231 [13] = assay: Induction of cell cycle arrest in human MDA-MB-231 cells assessed as G0/G1 phase cells at 33.3 nM incubated for 24 hrs by PI staining based flow cytometric analysis (reference value: 63.32 to 64.94%); type: functional
Homo sapiens = organism: Homo sapiens; assay: Antitumor activity against patient-derived breast cancer organoid assessed as decrease in structure density at 5 uM incubated for 120 hrs by bright-field imaging microscopic analysis; type: functional, tissue-based
[14] = biological target: T1, Protein cereblon/Tyrosine-protein kinase receptor UFO; assay: PROTAC activity at CRBN/AXL in human MDA-MB-231 cells assessed as induction of AXL degradation incubated upto 20 hrs in the presence of cycloheximide by Western blot analysis; type: cell-based
MDA-MB-231 [15] = assay: Induction of apoptosis in human MDA-MB-231 cells assessed as viable cells at 33.3 nM incubated for 48 hrs by Annexin V-PE staining based flow cytometric analysis (reference value: 92.59 to 92.71%); type: functional; conditions: read-out: Activity
MDA-MB-231 [16] = assay: Induction of apoptosis in human MDA-MB-231 cells assessed as late apoptotic cells at 300 nM incubated for 48 hrs by Annexin V-PE staining based flow cytometric analysis (reference value: 0.32 to 0.82%); type: functional
MDA-MB-231 [17] = assay: Induction of cell cycle arrest in human MDA-MB-231 cells assessed as S phase cells at 100 nM incubated for 24 hrs by PI staining based flow cytometric analysis (reference value: 9.64 to 10.79%); type: functional
[18] = biological target: Eukaryotic peptide chain release factor GTP-binding subunit ERF3A (Homo sapiens) (UniProt P15170); assay: Induction of GSPT1 degradation in human MDA-MB-231 cells at 0.016 to 10 nM incubated for 24 hrs by Western blot analysis; type: cell-based; conditions: dose 0.016-10 nM
MDA-MB-436 = assay: Antiproliferative activity against human MDA-MB-436 cells expressing AXL assessed as inhibition of cell growth incubated for 72 hrs by CCK8 assay; type: functional, cell-based; conditions: MDA-MB-436, 72 h
MDA-MB-231 [19] = assay: Inhibition of cell invasion in human MDA-MB-231 cells at 3.7 to 100 nM incubated for 18 hrs by transwell assay; type: functional, cell-based; conditions: dose 3.7-100 nM
MDA-MB-231 [20] = assay: Antitumor activity against human MDA-MB-231 cells xenografted in Balb/c nude mouse assessed as tumor growth inhibition at 10 mg/kg, ip administered for 22 days and measured 24 hrs post last dose relative to control; type: functional; conditions: MDA-MB-231, 552 h, time 23 day, read-out: TGI
[21] = biological target: Zinc finger protein Aiolos (Homo sapiens) (UniProt Q9UKT9); assay: Induction of IKZF3 degradation in human MDA-MB-231 cells at 10 uM incubated for 24 hrs by Western blot analysis; type: cell-based
MDA-MB-231 [22] = assay: Induction of apoptosis in human MDA-MB-231 cells assessed as early apoptotic cells at 33.3 nM incubated for 48 hrs by Annexin V-PE staining based flow cytometric analysis (reference value: 3.95 to 3.74%); type: functional
[23] = biological target: T1, Protein cereblon/Tyrosine-protein kinase receptor UFO; assay: PROTAC activity at CRBN/AXL in human MDA-MB-231 cells assessed as induction of AXL degradation at 40 nM preincubated with MLN-4924 for 2 hrs followed by compound treatment and measured after 24 hrs by Western blot analysis; type: cell-based
[24] = biological target: T1, Protein cereblon/Tyrosine-protein kinase receptor UFO; assay: PROTAC activity at CRBN/AXL in human MDA-MB-231 cells assessed as induction of AXL degradation at 40 nM by Western blot analysis; type: cell-based; conditions: time <= 72.0 hrs, TDE = time-dependent effect
MDA-MB-231 [25] = assay: Induction of apoptosis in human MDA-MB-231 cells assessed as early apoptotic cells at 100 nM incubated for 48 hrs by Annexin V-PE staining based flow cytometric analysis (reference value: 3.95 to 3.74%); type: functional

T1 sequence (P30530 26-894 limits assumed): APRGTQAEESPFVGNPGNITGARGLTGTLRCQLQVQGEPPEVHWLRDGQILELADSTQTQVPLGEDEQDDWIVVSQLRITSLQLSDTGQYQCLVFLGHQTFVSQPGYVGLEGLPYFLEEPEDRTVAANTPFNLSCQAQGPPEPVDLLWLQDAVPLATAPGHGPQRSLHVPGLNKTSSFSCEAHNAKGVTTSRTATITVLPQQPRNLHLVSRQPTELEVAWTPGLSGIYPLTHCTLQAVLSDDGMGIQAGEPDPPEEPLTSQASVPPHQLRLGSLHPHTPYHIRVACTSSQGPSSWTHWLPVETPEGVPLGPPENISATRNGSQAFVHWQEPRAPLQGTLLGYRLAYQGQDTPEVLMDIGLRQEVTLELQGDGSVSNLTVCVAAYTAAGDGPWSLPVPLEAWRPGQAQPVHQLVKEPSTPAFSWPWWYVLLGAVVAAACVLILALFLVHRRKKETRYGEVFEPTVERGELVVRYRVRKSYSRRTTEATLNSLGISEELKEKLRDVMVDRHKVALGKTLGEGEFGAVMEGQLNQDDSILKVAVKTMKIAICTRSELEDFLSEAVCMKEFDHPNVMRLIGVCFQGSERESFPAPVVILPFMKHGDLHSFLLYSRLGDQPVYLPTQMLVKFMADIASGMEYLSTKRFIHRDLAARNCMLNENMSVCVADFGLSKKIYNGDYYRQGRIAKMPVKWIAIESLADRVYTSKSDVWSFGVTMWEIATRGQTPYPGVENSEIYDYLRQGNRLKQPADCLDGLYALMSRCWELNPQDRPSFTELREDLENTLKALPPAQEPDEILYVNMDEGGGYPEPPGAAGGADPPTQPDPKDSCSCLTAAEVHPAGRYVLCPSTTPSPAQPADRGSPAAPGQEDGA
T1 sequence (Q96SW2 whole entry partner): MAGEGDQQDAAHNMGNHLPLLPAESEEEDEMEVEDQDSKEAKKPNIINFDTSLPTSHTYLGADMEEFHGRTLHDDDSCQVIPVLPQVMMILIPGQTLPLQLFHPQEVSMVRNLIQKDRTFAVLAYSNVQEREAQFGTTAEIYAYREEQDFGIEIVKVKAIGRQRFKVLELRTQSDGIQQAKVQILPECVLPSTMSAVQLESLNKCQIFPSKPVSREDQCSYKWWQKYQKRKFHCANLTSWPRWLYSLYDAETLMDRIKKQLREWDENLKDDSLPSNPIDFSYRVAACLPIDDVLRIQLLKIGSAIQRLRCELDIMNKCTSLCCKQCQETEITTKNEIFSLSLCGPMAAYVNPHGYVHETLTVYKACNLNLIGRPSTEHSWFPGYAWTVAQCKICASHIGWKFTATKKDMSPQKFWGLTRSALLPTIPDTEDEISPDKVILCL
Chain of Zinc finger protein Aiolos (Homo sapiens) (Q9UKT9 whole entry): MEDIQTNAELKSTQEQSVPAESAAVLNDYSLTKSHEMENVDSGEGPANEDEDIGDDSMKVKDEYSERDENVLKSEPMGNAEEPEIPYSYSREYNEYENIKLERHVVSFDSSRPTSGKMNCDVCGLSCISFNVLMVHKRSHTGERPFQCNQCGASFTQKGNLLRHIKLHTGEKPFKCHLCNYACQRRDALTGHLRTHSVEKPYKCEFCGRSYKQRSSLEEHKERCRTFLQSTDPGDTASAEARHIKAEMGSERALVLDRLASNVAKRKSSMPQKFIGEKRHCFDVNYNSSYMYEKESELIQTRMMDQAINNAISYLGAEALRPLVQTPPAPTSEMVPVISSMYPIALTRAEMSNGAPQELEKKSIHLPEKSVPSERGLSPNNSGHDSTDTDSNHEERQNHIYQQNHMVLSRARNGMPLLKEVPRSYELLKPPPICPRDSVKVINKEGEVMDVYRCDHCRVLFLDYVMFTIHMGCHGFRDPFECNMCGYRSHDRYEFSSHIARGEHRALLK
Chain of Eukaryotic peptide chain release factor GTP-binding subunit ERF3A (Homo sapiens) (P15170 whole entry): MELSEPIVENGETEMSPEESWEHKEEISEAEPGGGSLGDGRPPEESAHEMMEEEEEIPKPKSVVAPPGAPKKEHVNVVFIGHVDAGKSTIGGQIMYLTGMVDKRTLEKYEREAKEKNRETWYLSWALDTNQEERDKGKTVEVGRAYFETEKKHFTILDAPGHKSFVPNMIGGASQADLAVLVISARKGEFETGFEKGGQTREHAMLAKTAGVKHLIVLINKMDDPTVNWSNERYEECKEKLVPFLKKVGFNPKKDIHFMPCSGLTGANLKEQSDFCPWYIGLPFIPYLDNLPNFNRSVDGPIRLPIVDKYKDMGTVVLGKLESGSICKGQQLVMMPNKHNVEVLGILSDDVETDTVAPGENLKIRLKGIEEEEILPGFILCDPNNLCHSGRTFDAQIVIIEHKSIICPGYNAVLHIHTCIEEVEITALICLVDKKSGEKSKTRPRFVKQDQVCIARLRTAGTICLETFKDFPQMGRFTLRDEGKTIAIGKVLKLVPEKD

For `CCc1ccc2c(c1)c(=O)c(C(=O)Nc1ccc(Oc3ncnc4cc(OCCCCCC(=O)Nc5ccc6c(c5)CN(C5CCC(=O)NC5=O)C6=O)c(OC)cc34)c(F)c1)c(C)n2C` (stereo not drawn), the Activity (Mus musculus) was “Active”, the Activity [1] was “Non-Toxic” and the Activity [2] was “inactive”. The Activity [3] was “inactive”, the Activity [4] was “Active” and the Activity (MDA-MB-231 [5]) was 29.55%. For the same compound, the Activity (MDA-MB-231 [6]) was “Dose-Dependent Effect”, the Activity (MDA-MB-231 [7]) was 47.51% and the Activity [8] was “Non-Toxic”. For the same compound, the Activity [9] was “inactive”, the Activity [10] was “Active” and the Activity (MDA-MB-231 [11]) was 22.85%. The IC50 (MDA-MB-231 [12]) was 10 nM, the Activity (MDA-MB-231 [13]) was 63.32% and the Activity (Homo sapiens) was “Active”. The Activity [14] was “Active”, the viability at 0.0333 µM (MDA-MB-231 [15]) was 91.5% and the Activity (MDA-MB-231 [16]) was 0.79%. The Activity (MDA-MB-231 [17]) was 15.78%, the Activity [18] was “Active” and the IC50 (MDA-MB-436) was 5 nM. The inhibition (MDA-MB-231 [19]) was “Active”, the inhibition in vivo at 10 mg/kg (MDA-MB-231 [20]) was 40.9% and the Activity [21] was “inactive”. For the same compound, the Activity (MDA-MB-231 [22]) was 6.69%, the Activity [23] was “inactive” and the Activity [24] was “Tde”. The Activity (MDA-MB-231 [25]) was 14.51%.

From ChEMBL document CHEMBL5316328, “Discovery of AXL Degraders with Improved Potencies in Triple-Negative Breast Cancer (TNBC) Cells” (J Med Chem, 2023)
